ChEMBL document CHEMBL1153045, “Aminopiperidine-fused imidazoles as dipeptidyl peptidase-IV inhibitors” (Bioorg Med Chem Lett, 2009)

Experiments:
[1] = Oral bioavailability in rat at 2 mg/kg, po; type: ADME, organism-based; details: in vivo
[2] = Half life in rat at 1 mg/kg, iv or 2 mg/kg, po; type: ADME, organism-based; details: in vivo
[3] = Inhibition of rabbit L-type calcium channel; set-up: species or system Oryctolagus cuniculus
[4] = Plasma clearance in rat at 1 mg/kg, iv or 2 mg/kg, po; type: ADME, organism-based
Dipeptidyl peptidase 8 = Dipeptidyl peptidase 8 (Homo sapiens, UniProt Q6V1X1); test: Inhibition of human DPP8 expressed in baculovirus by continuous fluorescent assay
Sequence of Dipeptidyl peptidase 8 (Q6V1X1 whole entry): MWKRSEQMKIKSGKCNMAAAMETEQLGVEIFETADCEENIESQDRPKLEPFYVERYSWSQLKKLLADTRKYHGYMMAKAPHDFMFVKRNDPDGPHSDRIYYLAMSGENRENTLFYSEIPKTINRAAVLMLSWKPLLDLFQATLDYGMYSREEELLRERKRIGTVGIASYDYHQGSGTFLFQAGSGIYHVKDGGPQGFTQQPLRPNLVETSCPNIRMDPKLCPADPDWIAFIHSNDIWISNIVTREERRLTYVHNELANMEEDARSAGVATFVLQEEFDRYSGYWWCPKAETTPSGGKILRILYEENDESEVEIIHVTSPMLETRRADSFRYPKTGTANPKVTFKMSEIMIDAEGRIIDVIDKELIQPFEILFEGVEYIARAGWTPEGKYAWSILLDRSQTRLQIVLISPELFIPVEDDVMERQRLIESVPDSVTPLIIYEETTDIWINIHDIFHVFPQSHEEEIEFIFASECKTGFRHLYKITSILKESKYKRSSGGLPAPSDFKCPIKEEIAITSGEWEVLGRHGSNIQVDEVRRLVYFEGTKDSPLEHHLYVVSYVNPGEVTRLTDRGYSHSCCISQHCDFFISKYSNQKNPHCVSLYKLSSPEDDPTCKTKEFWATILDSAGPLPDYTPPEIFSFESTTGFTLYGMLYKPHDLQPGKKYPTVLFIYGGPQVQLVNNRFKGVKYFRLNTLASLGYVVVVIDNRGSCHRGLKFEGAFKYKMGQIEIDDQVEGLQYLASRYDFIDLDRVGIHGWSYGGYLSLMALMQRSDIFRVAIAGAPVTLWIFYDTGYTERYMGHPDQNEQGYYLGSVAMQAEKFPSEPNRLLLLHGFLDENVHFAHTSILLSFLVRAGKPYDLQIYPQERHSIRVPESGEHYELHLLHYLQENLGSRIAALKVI

Cytochrome P450 2D6 = Cytochrome P450 2D6 (Homo sapiens, UniProt P10635); test: Inhibition of CYP2D6; type: ADME
Sequence of Cytochrome P450 2D6 (P10635 whole entry): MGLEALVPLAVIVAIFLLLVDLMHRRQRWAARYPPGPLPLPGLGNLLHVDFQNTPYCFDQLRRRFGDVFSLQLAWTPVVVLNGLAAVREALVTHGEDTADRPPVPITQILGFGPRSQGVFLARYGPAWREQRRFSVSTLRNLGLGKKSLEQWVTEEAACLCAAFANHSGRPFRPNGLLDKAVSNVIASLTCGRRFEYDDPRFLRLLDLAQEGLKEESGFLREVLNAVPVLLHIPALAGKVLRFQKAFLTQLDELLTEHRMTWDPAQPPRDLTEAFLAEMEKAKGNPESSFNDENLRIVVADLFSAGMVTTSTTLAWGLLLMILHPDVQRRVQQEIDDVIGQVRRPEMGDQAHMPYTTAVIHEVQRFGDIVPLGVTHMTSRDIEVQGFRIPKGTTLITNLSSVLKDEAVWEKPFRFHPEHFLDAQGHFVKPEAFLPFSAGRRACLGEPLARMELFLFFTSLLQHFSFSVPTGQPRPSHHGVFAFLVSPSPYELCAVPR

[5] = biological target: Voltage-gated inwardly rectifying potassium channel KCNH2 (Homo sapiens, UniProt Q12809); test: Inhibition of human ERG
Sequence of Voltage-gated inwardly rectifying potassium channel KCNH2 (Q12809 whole entry): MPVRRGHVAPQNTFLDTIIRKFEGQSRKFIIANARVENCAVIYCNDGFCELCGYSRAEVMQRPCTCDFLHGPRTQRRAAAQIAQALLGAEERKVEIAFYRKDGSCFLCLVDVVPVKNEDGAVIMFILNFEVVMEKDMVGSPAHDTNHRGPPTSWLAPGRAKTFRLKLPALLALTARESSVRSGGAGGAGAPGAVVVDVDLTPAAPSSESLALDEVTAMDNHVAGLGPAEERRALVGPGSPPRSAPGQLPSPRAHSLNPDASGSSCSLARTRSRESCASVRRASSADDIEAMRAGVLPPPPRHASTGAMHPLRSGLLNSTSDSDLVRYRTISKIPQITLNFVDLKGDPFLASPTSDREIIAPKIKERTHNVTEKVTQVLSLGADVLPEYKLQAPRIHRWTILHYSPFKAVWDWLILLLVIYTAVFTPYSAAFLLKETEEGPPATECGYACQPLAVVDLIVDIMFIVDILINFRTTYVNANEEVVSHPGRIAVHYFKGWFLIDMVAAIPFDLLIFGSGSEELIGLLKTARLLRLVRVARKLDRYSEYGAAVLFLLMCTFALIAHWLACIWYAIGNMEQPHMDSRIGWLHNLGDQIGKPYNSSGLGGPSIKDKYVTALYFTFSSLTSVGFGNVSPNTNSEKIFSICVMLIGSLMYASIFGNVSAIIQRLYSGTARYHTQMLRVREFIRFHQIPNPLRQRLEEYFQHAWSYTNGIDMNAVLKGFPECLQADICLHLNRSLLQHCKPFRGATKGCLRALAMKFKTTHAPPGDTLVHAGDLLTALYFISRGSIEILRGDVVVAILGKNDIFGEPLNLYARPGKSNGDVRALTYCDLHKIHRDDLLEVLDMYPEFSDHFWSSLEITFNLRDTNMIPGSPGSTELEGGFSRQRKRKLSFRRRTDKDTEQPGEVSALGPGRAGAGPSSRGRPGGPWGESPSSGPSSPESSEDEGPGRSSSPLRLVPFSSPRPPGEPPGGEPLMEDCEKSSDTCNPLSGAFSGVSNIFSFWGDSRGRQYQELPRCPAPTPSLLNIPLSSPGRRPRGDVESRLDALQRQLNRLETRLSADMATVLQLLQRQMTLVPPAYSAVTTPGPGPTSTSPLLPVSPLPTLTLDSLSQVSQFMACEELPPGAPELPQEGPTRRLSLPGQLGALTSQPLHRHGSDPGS

Dipeptidyl peptidase 2 = Dipeptidyl peptidase 2 (Homo sapiens, UniProt Q9UHL4); test: Inhibition of human recombinant QPP transfected in insect SF9 cells
Dipeptidyl peptidase 9 = Dipeptidyl peptidase 9 (Homo sapiens, UniProt Q86TI2); test: Inhibition of human DPP9 expressed in baculovirus by continuous fluorescent assay
Sequence of Dipeptidyl peptidase 9 (Q86TI2 whole entry): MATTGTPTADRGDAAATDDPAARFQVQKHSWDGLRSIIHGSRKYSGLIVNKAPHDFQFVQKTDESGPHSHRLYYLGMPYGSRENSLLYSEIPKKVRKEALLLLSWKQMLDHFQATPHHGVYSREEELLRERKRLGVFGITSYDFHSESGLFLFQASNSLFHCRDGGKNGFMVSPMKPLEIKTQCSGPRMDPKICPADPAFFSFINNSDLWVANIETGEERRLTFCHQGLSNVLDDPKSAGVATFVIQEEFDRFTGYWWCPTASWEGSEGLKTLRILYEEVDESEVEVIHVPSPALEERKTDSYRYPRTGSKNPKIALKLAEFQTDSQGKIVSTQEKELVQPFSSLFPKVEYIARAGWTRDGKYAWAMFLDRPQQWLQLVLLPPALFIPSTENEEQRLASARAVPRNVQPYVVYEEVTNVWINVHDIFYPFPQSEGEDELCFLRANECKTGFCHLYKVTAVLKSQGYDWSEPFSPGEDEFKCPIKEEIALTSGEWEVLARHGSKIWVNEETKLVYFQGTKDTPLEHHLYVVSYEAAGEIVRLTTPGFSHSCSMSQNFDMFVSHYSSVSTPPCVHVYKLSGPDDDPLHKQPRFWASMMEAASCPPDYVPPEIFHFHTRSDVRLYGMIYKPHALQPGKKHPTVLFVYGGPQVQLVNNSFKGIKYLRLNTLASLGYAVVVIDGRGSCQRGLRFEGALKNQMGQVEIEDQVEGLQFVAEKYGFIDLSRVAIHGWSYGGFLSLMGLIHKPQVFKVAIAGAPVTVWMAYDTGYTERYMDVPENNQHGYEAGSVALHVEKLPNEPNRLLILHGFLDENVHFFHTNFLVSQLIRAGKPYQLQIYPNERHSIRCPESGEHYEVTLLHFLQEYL

Mus musculus [6] = test: Reduction in glucose excursion in C57BL/6N lean mouse at 3 mg/kg, po administered as single dose 60 mins before dextrose challenge by oral glucose tolerance test; type: functional; set-up: scale not given: the % may be the effect or the level left
[7] = Oral bioavailability in mouse at 2 mg/kg, po; type: ADME, organism-based; details: in vivo
[8] = Oral bioavailability in rhesus monkey at 2 mg/kg, po; type: ADME, organism-based, Macaca mulatta; details: in vivo
[9] = Fraction unbound in mouse plasma; type: ADME, cell-free
[10] = Plasma concentration in C57BL/6N lean mouse at 1 mg/kg, po administered as single dose 60 mins before dextrose challenge by oral glucose tolerance test; type: ADME, organism-based; set-up: dose 1 mg/kg, route oral
[11] = Plasma clearance in rhesus monkey at 1 mg/kg, iv or 2 mg/kg, po; type: ADME, organism-based, Macaca mulatta
[12] = Plasma clearance in dog at 1 mg/kg, iv or 2 mg/kg, po; type: ADME, organism-based, Canis lupus familiaris
[13] = Half life in dog at 1 mg/kg, iv or 2 mg/kg, po; type: ADME, organism-based, Canis lupus familiaris; details: in vivo
[14] = Half life in rhesus monkey at 1 mg/kg, iv or 2 mg/kg, po; type: ADME, organism-based, Macaca mulatta; details: in vivo
Mus musculus [15] = test: Inhibition of DPP4 in C57BL/6N lean mouse at 1 mg/kg, po administered as single dose 60 mins before dextrose challenge by oral glucose tolerance test; type: functional
Mus musculus [16] = test: Reduction in glucose excursion in C57BL/6N lean mouse at 0.1 mg/kg, po administered as single dose 60 mins before dextrose challenge by oral glucose tolerance test; type: functional; set-up: scale not given: the % may be the effect or the level left
[17] = Half life in mouse at 1 mg/kg, iv or 2 mg/kg, po; type: ADME, organism-based; details: in vivo
Dipeptidyl peptidase 4 = Dipeptidyl peptidase 4 (Mus musculus, UniProt P28843); test: Inhibition of C57BL/6N mouse DPP4
Sequence of Dipeptidyl peptidase 4 (P28843 whole entry): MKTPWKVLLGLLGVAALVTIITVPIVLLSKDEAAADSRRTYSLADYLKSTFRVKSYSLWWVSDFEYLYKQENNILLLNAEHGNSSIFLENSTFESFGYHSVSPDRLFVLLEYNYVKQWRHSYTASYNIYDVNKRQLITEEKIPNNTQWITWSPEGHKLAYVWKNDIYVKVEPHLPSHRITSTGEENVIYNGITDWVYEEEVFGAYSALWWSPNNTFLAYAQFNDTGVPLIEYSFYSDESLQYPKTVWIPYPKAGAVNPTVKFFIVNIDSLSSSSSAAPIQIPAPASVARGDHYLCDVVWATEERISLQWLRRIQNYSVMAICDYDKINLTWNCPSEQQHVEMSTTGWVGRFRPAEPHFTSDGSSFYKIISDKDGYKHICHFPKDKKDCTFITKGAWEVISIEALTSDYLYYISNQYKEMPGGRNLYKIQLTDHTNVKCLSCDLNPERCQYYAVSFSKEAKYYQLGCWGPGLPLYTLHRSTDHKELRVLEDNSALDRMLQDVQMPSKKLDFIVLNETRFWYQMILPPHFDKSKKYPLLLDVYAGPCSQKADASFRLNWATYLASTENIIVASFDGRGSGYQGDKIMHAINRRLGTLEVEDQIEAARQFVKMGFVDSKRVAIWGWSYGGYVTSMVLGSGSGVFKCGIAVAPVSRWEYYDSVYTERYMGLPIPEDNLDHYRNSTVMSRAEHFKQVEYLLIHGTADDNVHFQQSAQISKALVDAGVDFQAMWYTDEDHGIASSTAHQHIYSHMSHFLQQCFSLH

[18] = Plasma clearance in mouse at 1 mg/kg, iv or 2 mg/kg, po; type: ADME, organism-based
[19] = Oral bioavailability in dog at 2 mg/kg, po; type: ADME, organism-based, Canis lupus familiaris; details: in vivo
[20] = Metabolic stability in human liver microsomes assessed as compound remaining after 60 mins; type: ADME, Microsome; details: read-out: Stability
[21] = Metabolic stability in dog liver microsomes assessed as compound remaining after 60 mins; type: ADME, Canis lupus familiaris, Microsome; details: read-out: Stability
[22] = Metabolic stability in rat hepatocytes assessed as compound remaining after 60 mins; type: ADME, cell-based, Hepatocyte; details: read-out: Stability
[23] = Metabolic stability in rat liver microsomes assessed as compound remaining after 60 mins; type: ADME, Microsome; details: read-out: Stability
[24] = Metabolic stability in human hepatocytes assessed as compound remaining after 60 mins; type: ADME, cell-based, Hepatocyte; details: read-out: Stability
[25] = Metabolic stability in dog hepatocytes assessed as compound remaining after 60 mins; type: ADME, cell-based, Canis lupus familiaris, Hepatocyte; details: read-out: Stability
[26] = Metabolic stability in rhesus monkey liver microsomes assessed as compound remaining after 60 mins; type: ADME, Macaca mulatta, Microsome; details: read-out: Stability
[27] = Metabolic stability in rhesus monkey hepatocytes assessed as compound remaining after 60 mins; type: ADME, cell-based, Macaca mulatta, Hepatocyte; details: read-out: Stability

Row | SMILES | bioavailability [1] [%] | half-life [2] [h] | clearance [4] [mL/min/kg] | IC50 (Dipeptidyl peptidase 8) [µM] | IC50 (Dipeptidyl peptidase 9) [µM] | other results
1 | N[C@H]1Cn2c(nc3cnc(F)cc32)C[C@@H]1c1cc(F)c(F)cc1F.O=C(O)C(F)(F)F.O=C(O)C(F)(F)F | 87 | 17 | 0.5 | > 100 |  | IC50 [3]: 1.5 µM; IC50 (Cytochrome P450 2D6): 12 µM; IC50 [5]: 81 µM
2 | N[C@H]1Cn2c(nc3cc(C(=O)O)ccc32)C[C@@H]1c1cc(F)c(F)cc1F.O=C(O)C(F)(F)F | 24 | 0.4 | 61 | > 100 | > 100 | IC50 (Dipeptidyl peptidase 2): > 100 µM
3 | N[C@H]1Cn2c(nc3cnc(C(F)(F)F)cc32)C[C@@H]1c1cc(F)c(F)cc1F.O=C(O)C(F)(F)F.O=C(O)C(F)(F)F | 110 | 8.7 | 1.4 |  |  | IC50 [3]: 96 µM; IC50 (Cytochrome P450 2D6): 11 µM
4 | N[C@H]1Cn2c(nc3cc(C(F)(F)F)ccc32)C[C@@H]1c1cc(F)c(F)cc1F.O=C(O)C(F)(F)F | 55 | 7.6 | 4.8 | > 100 | > 100 | 
5 | Cl.N[C@H]1Cn2c(nc3cnccc32)C[C@@H]1c1cc(F)c(F)cc1F |  |  |  | > 100 | > 100 | Activity (Mus musculus [6]): 49%; IC50 (Dipeptidyl peptidase 2): > 100 µM; bioavailability [7]: 73%; bioavailability [8]: 11%; fraction unbound [9]: 0.55; concentration at 1 h [10]: 691 nM; IC50 [3]: > 100 µM; clearance [11]: 35 mL/min/kg; clearance [12]: 2.7 mL/min/kg; half-life [13]: 13 h; half-life [14]: 1 h; inhibition in vivo at 1 mg/kg (Mus musculus [15]): 88%; Activity (Mus musculus [16]): 27%; half-life [17]: 1.9 h; IC50 (Cytochrome P450 2D6): 13 µM; IC50 (Dipeptidyl peptidase 4): 0.045 µM; clearance [18]: 36 mL/min/kg; bioavailability [19]: 120%
6 | N[C@H]1Cn2c(nc3c(F)cccc32)C[C@@H]1c1cc(F)c(F)cc1F |  |  |  | > 100 | > 100 | 
7 | CCS(=O)(=O)c1ccc2c(c1)nc1n2C[C@H](N)[C@@H](c2cc(F)c(F)cc2F)C1 |  |  |  | > 100 | > 100 | IC50 (Dipeptidyl peptidase 2): > 100 µM
8 | N[C@H]1Cn2c(nc3cnccc32)C[C@@H]1c1cc(F)c(F)cc1F.O=C(O)C(F)(F)F.O=C(O)C(F)(F)F | 140 | 2.6 | 8.7 | > 100 | > 100 | remaining at 1 h [20]: 97%; IC50 (Dipeptidyl peptidase 2; sf9): > 100 µM; remaining at 1 h [21]: 92%; remaining at 1 h [22]: 94%; remaining at 1 h [23]: 83%; remaining at 1 h [24]: 99%; IC50 (Cytochrome P450 2D6): 13 µM; remaining at 1 h [25]: 99%; remaining at 1 h [26]: 69%; remaining at 1 h [27]: 35%
9 | N[C@H]1Cn2c(nc3c(F)cc(F)cc32)C[C@@H]1c1cc(F)c(F)cc1F |  |  |  | > 100 |  | 
10 | N[C@H]1Cn2c(nc3ccncc32)C[C@@H]1c1cc(F)c(F)cc1F |  |  |  |  |  | IC50 (Dipeptidyl peptidase 2): > 100 µM
11 | N[C@H]1Cn2c(nc3cccnc32)C[C@@H]1c1cc(F)c(F)cc1F |  |  |  | > 100 | > 100 | 
12 | N[C@H]1Cn2c(nc3ccc(OC(F)(F)F)cc32)C[C@@H]1c1cc(F)c(F)cc1F |  |  |  |  | > 100 | 
13 | COc1ccc2c(c1)nc1n2C[C@H](N)[C@@H](c2cc(F)c(F)cc2F)C1 |  |  |  | > 100 |  | 
14 | Cc1ccc2c(c1)nc1n2C[C@H](N)[C@@H](c2cc(F)c(F)cc2F)C1 |  |  |  | > 100 | > 100 | 
15 | N[C@H]1Cn2c(nc3ccc(F)cc32)C[C@@H]1c1cc(F)c(F)cc1F.O=C(O)C(F)(F)F | 37 | 1.4 | 25 | > 100 |  | 
16 | N[C@H]1Cn2c(nc3ncccc32)C[C@@H]1c1cc(F)c(F)cc1F.O=C(O)C(F)(F)F.O=C(O)C(F)(F)F | 96 | 3.8 | 3.9 | > 100 | > 100 | IC50 [3]: > 100 µM; IC50 (Cytochrome P450 2D6): 5.2 µM; IC50 [5]: 90 µM
17 | CS(=O)(=O)c1ccc2nc3n(c2c1)C[C@H](N)[C@@H](c1cc(F)c(F)cc1F)C3 |  |  |  | > 100 | > 100 | IC50 (Dipeptidyl peptidase 2): > 100 µM
18 | CS(=O)(=O)Nc1ccc2c(c1)nc1n2C[C@H](N)[C@@H](c2cc(F)c(F)cc2F)C1 |  |  |  | > 100 |  | IC50 [5]: 2.5 µM
19 | N[C@H]1Cn2c(nc3c(F)c(F)c(F)cc32)C[C@@H]1c1cc(F)c(F)cc1F |  |  |  | > 100 |  | 
20 | CN(C)C(=O)c1ccc2c(c1)nc1n2C[C@H](N)[C@@H](c2cc(F)c(F)cc2F)C1 |  |  |  | > 100 | > 100 | 
21 | CS(=O)(=O)c1ccc2c(c1)nc1n2C[C@H](N)[C@@H](c2cc(F)c(F)cc2F)C1.O=C(O)C(F)(F)F | 63 | 3.4 | 2.2 | > 100 | > 100 | IC50 [3]: > 100 µM; IC50 (Cytochrome P450 2D6): 1.5 µM
22 | N[C@H]1Cn2c(nc3cc(F)ccc32)C[C@@H]1c1cc(F)c(F)cc1F |  |  |  | > 100 |  | 
23 | CC(=O)Nc1ccc2c(c1)nc1n2C[C@H](N)[C@@H](c2cc(F)c(F)cc2F)C1 |  |  |  |  | > 100 | 
24 | N[C@H]1Cn2c(nc3ccc(C(F)(F)F)cc32)C[C@@H]1c1cc(F)c(F)cc1F |  |  |  | > 100 |  | 
25 | N[C@H]1Cn2c(nc3ccccc32)C[C@@H]1c1cc(F)c(F)cc1F |  |  |  | > 100 | > 100 | 
